Results published in the CheMixHub ionic liquid set.
Values joined by “and” are separate entries in the source; they are usually repeats but may differ in a detail not shown here. Identical values can stand only once. ± gives the uncertainty stated by the source.

Test: xn = mol fraction of the nth substance listed

CCCCCC[n+]1ccc(C)cc1.[Br-] + CO/N=C(\C(=O)N[C@@H]1C(=O)N2C(C(=O)[O-])=C(CSc3nc(=O)c(=O)[n-]n3C)CS[C@H]12)c1csc(N)n1.[Na+].[Na+] + O
viscosity [mPa·s], 100 kPa
Settings	288.15 K	293.15 K	298.15 K	303.15 K	308.15 K
x2 = 0, x1 = 0.0007045	1.172 ± 0.048	1.028 ± 0.042	0.913 ± 0.038	0.817 ± 0.034	0.738 ± 0.03
x2 = 0, x1 = 0.001062	1.183 ± 0.049	1.039 ± 0.043	0.924 ± 0.038	0.824 ± 0.034	0.746 ± 0.031
x2 = 0, x1 = 0.001422	1.195 ± 0.049	1.05 ± 0.043	0.934 ± 0.038	0.834 ± 0.034	0.753 ± 0.031
x2 = 0.00034, x1 = 0.0007042	1.221 ± 0.05	1.065 ± 0.044	0.947 ± 0.039	0.847 ± 0.035	0.764 ± 0.031
x2 = 0.0008651, x1 = 0.0007039	1.316 ± 0.054	1.152 ± 0.047	1.019 ± 0.042	0.911 ± 0.037	0.818 ± 0.034
x2 = 0.0008655, x1 = 0.001061	1.322 ± 0.054	1.159 ± 0.048	1.029 ± 0.042	0.917 ± 0.038	0.826 ± 0.034
x2 = 0.0008696, x1 = 0.001421	1.338 ± 0.055	1.172 ± 0.048	1.038 ± 0.043	0.923 ± 0.038	0.831 ± 0.034
x2 = 0.001399, x1 = 0.0007035	1.412 ± 0.058	1.233 ± 0.051	1.092 ± 0.045	0.974 ± 0.04	0.875 ± 0.036
x2 = 0.001401, x1 = 0.00142	1.432 ± 0.059	1.255 ± 0.052	1.116 ± 0.046	0.991 ± 0.041	0.888 ± 0.037
x2 = 0.001409, x1 = 0.00106	1.418 ± 0.058	1.244 ± 0.051	1.1 ± 0.045	0.98 ± 0.04	0.881 ± 0.036
x2 = 0.001955, x1 = 0.001419	1.545 ± 0.064	1.353 ± 0.056	1.2 ± 0.05	1.062 ± 0.044	0.951 ± 0.039
x2 = 0.001966, x1 = 0.0007031	1.521 ± 0.062	1.329 ± 0.055	1.178 ± 0.048	1.047 ± 0.043	0.938 ± 0.039
x2 = 0.00197, x1 = 0.00106	1.534 ± 0.063	1.34 ± 0.055	1.184 ± 0.049	1.054 ± 0.043	0.946 ± 0.039
x2 = 0.00252, x1 = 0.0007027	1.641 ± 0.068	1.432 ± 0.059	1.264 ± 0.052	1.125 ± 0.046	1.01 ± 0.042
x2 = 0.002559, x1 = 0.001419	1.685 ± 0.069	1.47 ± 0.061	1.302 ± 0.054	1.143 ± 0.047	1.03 ± 0.042
x2 = 0.003119, x1 = 0.0007023	1.784 ± 0.073	1.555 ± 0.064	1.369 ± 0.056	1.216 ± 0.05	1.088 ± 0.045
x2 = 0.003144, x1 = 0.001058	1.807 ± 0.074	1.572 ± 0.065	1.398 ± 0.058	1.231 ± 0.051	1.098 ± 0.045
x2 = 0.003161, x1 = 0.001418	1.832 ± 0.076	1.592 ± 0.066	1.412 ± 0.058	1.242 ± 0.051	1.112 ± 0.046
x2 = 0.003971, x1 = 0.0007017	2.011 ± 0.083	1.751 ± 0.072	1.539 ± 0.063	1.363 ± 0.056	1.216 ± 0.05
x2 = 0.003978, x1 = 0.001417	2.065 ± 0.085	1.788 ± 0.074	1.585 ± 0.065	1.387 ± 0.057	1.243 ± 0.051
x2 = 0.004835, x1 = 0.0007011	2.288 ± 0.094	1.987 ± 0.082	1.737 ± 0.072	1.534 ± 0.063	1.365 ± 0.056
x2 = 0.004866, x1 = 0.001415	2.36 ± 0.097	2.033 ± 0.084	1.798 ± 0.074	1.567 ± 0.065	1.394 ± 0.057
x2 = 0.00487, x1 = 0.001057	2.329 ± 0.096	2.011 ± 0.083	1.772 ± 0.073	1.556 ± 0.064	1.379 ± 0.057
x2 = 0.005535, x1 = 0.0007006	2.55 ± 0.11	2.197 ± 0.091	1.919 ± 0.079	1.69 ± 0.07	1.499 ± 0.062
x2 = 0.005568, x1 = 0.001056	2.58 ± 0.11	2.228 ± 0.092	1.956 ± 0.081	1.716 ± 0.071	1.513 ± 0.062
x2 = 0.00558, x1 = 0.001414	2.61 ± 0.11	2.251 ± 0.093	1.984 ± 0.082	1.726 ± 0.071	1.534 ± 0.063

C[N+]1(CCOCCOCCOCC[N+]2(C)CCCC2)CCCC1.O=S(=O)([N-]S(=O)(=O)C(F)(F)F)C(F)(F)F.O=S(=O)([N-]S(=O)(=O)C(F)(F)F)C(F)(F)F + CC[n+]1ccn(C)c1.N#C[N-]C#N + O=S(=O)([N-]S(=O)(=O)C(F)(F)F)C(F)(F)F.[Li+]
100 kPa, x1 = 0.1489, x2 = 0.7484
Settings	electrical conductivity [S/m]
298 K	0.698 ± 0.028
303 K	0.827 ± 0.033
313 K	1.1 ± 0.044
323 K	1.43 ± 0.057
333 K	1.81 ± 0.072
343 K	2.21 ± 0.089

CCOP(=O)([O-])OCC.CC[n+]1ccn(C)c1 + CS(C)=O
298.1 K, 100 kPa
Settings	electrical conductivity
x1 = 0.025	0.31 S/m and 0.4 S/m
x1 = 0.407	0.4 ± 0.02 S/m
x1 = 0.718	0.16 ± 0.01 S/m
x1 = 1	0.09 ± 0.01 S/m

CCCCCCCCCCCCCC[P+](CCCCCC)(CCCCCC)CCCCCC.O=S(=O)([N-]S(=O)(=O)C(F)(F)F)C(F)(F)F + COCCOCCOCCOCCOC
viscosity [mPa·s], 100 kPa
Settings	278.15 K	283.15 K	288.15 K	293.15 K	298.15 K	303.15 K	313.15 K	323.15 K
x2 = 0.191	589 ± 30	414 ± 19	299 ± 12	221 ± 7	168 ± 5	130 ± 3	83 ± 1	60 ± 1
x2 = 0.366	281 ± 11	207 ± 7	157 ± 4	121 ± 3	96 ± 2	77 ± 1	52 ± 1	–
x2 = 0.559	111 ± 3	85 ± 1	67 ± 1	54 ± 1	–	–	–	–
x2 = 0.664	64 ± 1	51 ± 1	–	–	–	–	–	–

CCCC[n+]1ccn(C)c1.[Cl-] + CO
101 kPa, frequency 0 MHz
Settings	electrical conductivity [S/m]
293.15 K, x1 = 0.007978	0.93 ± 0.24
303.15 K, x1 = 0.00449	0.66 ± 0.25
313.15 K, x1 = 0.002223	0.42 ± 0.32
313.15 K, x1 = 0.00354	0.6 ± 0.29
323.15 K, x1 = 0.00449	0.83 ± 0.31

101 kPa
Settings	electrical conductivity [S/m]	viscosity [mPa·s]
293.15 K, x2 = 0.5001	–	65 ± 11
293.15 K, x2 = 0.5458	–	40.4 ± 6.2
298.15 K, x2 = 0.7015	2.19 ± 0.04	7.5 ± 1.2
303.15 K, x2 = 0.5594	–	27.1 ± 4.2
303.15 K, x2 = 0.7001	–	6.8 ± 1.1
308.15 K, x2 = 0.8999	–	1.19 ± 0.3
308.15 K, x2 = 0.95	–	0.79 ± 0.24

CCCCCCCCn1cc[n+](C)c1.[Br-] + O
electrical conductivity [S/m]
Settings	298.15 K	308.15 K
100 kPa, frequency 0.001 MHz, x1 = 0.0006843	0.249 ± 0.013	–
100 kPa, frequency 0.001 MHz, x1 = 0.0009721	0.348 ± 0.013	–
100 kPa, frequency 0.001 MHz, x1 = 0.001278	0.462 ± 0.014	–
100 kPa, frequency 0.001 MHz, x1 = 0.001601	0.576 ± 0.014	–
100 kPa, frequency 0.001 MHz, x1 = 0.001889	0.683 ± 0.014	–
100 kPa, frequency 0.001 MHz, x1 = 0.002176	0.778 ± 0.015	–
100 kPa, frequency 0.001 MHz, x1 = 0.002445	0.88 ± 0.015	–
100 kPa, frequency 0.001 MHz, x1 = 0.002714	0.965 ± 0.014	–
100 kPa, frequency 0.001 MHz, x1 = 0.003072	1.06 ± 0.013	–
100 kPa, frequency 0.001 MHz, x1 = 0.003341	1.1 ± 0.012	–
100 kPa, frequency 0.001 MHz, x1 = 0.003681	1.15 ± 0.013	–
100 kPa, frequency 0.001 MHz, x1 = 0.004092	1.22 ± 0.013	–
100 kPa, frequency 0.001 MHz, x1 = 0.004592	1.28 ± 0.014	–
101 kPa, frequency 1 MHz, x1 = 0.0001962	0.1011 ± 0.001	0.122 ± 0.0013

Settings	electrical conductivity [S/m]	viscosity [mPa·s]
298.15 K, 100 kPa, x1 = 6.847e-05	–	0.892 ± 0.019
298.15 K, 100 kPa, x1 = 0.0003279	–	0.899 ± 0.019
298.15 K, 101 kPa, x1 = 1.982e-05	–	0.891 ± 0.019
298.15 K, 101 kPa, x1 = 3.243e-05	–	0.892 ± 0.019
298.15 K, 101 kPa, x1 = 0.0001962	–	0.912 ± 0.011
298.15 K, 101 kPa, x1 = 0.001831	–	0.965 ± 0.013
298.15 K, 101 kPa, x1 = 0.003519	1.17 ± 0.02	–
298.15 K, 101 kPa, x1 = 0.003598	–	1.025 ± 0.014
298.15 K, 101 kPa, x1 = 0.00377	1.23 ± 0.03	–
298.15 K, 101 kPa, x1 = 0.003967	1.26 ± 0.03	–
298.15 K, 101 kPa, x1 = 0.004163	1.3 ± 0.03	–
298.15 K, 101 kPa, x1 = 0.004378	1.34 ± 0.03	–
298.15 K, 101 kPa, x1 = 0.004538	1.36 ± 0.03	–
298.15 K, 101 kPa, x1 = 0.004717	1.39 ± 0.03	–
298.15 K, 101 kPa, x1 = 0.004895	1.41 ± 0.03	–
298.15 K, 101 kPa, x1 = 0.005109	1.45 ± 0.03	–
298.15 K, 101 kPa, x1 = 0.005288	1.48 ± 0.03	–
298.15 K, 101 kPa, x1 = 0.005443	–	1.103 ± 0.014
298.15 K, 101 kPa, x1 = 0.005484	1.51 ± 0.03	–
298.15 K, 101 kPa, x1 = 0.005698	1.54 ± 0.03	–
298.15 K, 101 kPa, x1 = 0.005894	1.56 ± 0.03	–
298.15 K, 101 kPa, x1 = 0.007132	–	1.172 ± 0.014
303.15 K, 100 kPa, x1 = 0.0002	–	0.803 ± 0.017
308.15 K, 100 kPa, x1 = 0.0003279	–	0.726 ± 0.015
308.15 K, 101 kPa, x1 = 0.0001962	–	0.736 ± 0.009
313.15 K, 100 kPa, x1 = 0.0002	–	0.657 ± 0.014
